From US10670605B2, “Cysteine reactive probes and uses thereof” (The Scripps Research Institute, priority 2015, dated 2020)

Legend:
Experiment in all cases: Competitive isoTOP-ABPP, cell lysates
Type in all cases: binding
GSTP1 C48 (P09211) = GSTP1 C48 (P09211) (Homo sapiens, UniProt P09211); conditions: for isoTOP-ABPP ratio, P09211_C48: 500 μM, invitro; for isoTOP-ABPP reactivity ratio, P09211_C48: 500 μm
PDIA6 C190 (Q15084) = target: T1, PDIA6 C190 (Q15084) (Homo sapiens, UniProt Q15084); conditions: for isoTOP-ABPP ratio, Q15084_C190: 500 μM, invitro
T1 sequence (Q15084 20-440): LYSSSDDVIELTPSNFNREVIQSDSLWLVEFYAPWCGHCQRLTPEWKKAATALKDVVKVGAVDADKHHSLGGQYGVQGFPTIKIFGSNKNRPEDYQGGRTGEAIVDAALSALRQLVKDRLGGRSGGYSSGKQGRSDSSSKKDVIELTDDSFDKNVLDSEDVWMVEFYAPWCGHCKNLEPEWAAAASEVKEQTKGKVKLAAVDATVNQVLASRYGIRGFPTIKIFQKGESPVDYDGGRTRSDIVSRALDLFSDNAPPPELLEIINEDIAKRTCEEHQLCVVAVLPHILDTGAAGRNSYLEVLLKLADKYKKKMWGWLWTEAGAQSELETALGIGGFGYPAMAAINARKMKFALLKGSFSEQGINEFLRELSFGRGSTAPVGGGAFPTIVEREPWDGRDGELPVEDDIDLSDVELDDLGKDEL

IDH1 C269 (O75874) = IDH1 C269 (O75874) (Homo sapiens, UniProt O75874)
MGMT C150 (P16455) = target: T2, MGMT C150 (P16455) (Homo sapiens, UniProt P16455)
T2 sequence (P16455 1-207): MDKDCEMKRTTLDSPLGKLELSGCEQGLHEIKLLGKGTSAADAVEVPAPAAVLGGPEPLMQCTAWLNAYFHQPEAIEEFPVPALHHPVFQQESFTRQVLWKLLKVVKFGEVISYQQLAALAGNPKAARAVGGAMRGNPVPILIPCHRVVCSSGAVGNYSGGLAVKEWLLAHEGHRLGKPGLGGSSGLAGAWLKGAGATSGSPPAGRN

STAT3 C259 (P40763) = STAT3 C259 (P40763) (Homo sapiens, UniProt P40763)
XPO1 C34 (O14980) = XPO1 C34 (O14980) (Homo sapiens, UniProt O14980); conditions: for isoTOP-ABPP ratio, O14980_C34: 500 μM, invitro; for isoTOP-ABPP reactivity ratio, O14980_C34: 500 μm
PCK2 C306 (Q16822) = target: T3, PCK2 C306 (Q16822) (Homo sapiens, UniProt Q16822); conditions: for isoTOP-ABPP ratio, Q16822_C306: 500 μM, invitro; for isoTOP-ABPP reactivity ratio, Q16822_C306: 500 μm
T3 sequence (Q16822 33-640): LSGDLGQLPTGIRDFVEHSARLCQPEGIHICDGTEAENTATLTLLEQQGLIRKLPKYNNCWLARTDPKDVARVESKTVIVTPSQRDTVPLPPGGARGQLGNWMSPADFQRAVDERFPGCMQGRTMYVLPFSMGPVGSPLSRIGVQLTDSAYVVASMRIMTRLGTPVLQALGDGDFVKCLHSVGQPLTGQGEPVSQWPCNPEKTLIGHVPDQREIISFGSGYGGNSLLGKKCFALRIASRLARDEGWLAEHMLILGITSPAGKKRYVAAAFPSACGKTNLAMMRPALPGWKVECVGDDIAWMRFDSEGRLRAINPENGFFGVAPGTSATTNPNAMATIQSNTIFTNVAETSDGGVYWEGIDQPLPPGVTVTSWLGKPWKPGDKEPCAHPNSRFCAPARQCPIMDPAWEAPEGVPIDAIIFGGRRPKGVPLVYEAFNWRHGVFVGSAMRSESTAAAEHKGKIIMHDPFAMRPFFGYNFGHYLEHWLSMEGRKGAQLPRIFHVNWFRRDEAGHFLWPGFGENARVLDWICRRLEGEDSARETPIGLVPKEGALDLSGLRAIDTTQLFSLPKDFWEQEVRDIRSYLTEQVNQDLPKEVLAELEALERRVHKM

PRMT1 C109 (Q99873) = PRMT1 C109 (Q99873) (Homo sapiens, UniProt Q99873); conditions: for isoTOP-ABPP ratio, Q99873_C109: 500 μM, invitro; for isoTOP-ABPP reactivity ratio, Q99873_C109: 500 μm
Sequence of PRMT1 C109 (Q99873) (Q99873 whole entry): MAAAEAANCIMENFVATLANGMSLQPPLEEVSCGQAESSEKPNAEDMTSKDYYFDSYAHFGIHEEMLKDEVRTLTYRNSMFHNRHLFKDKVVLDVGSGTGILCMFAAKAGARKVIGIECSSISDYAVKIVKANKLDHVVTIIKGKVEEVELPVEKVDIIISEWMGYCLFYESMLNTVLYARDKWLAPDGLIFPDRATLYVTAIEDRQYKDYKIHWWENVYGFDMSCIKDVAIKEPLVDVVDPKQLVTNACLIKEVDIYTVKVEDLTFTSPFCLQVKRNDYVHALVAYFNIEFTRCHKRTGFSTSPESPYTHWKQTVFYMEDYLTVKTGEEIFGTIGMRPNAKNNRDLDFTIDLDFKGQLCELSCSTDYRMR

Sequence of XPO1 C34 (O14980) (O14980 whole entry): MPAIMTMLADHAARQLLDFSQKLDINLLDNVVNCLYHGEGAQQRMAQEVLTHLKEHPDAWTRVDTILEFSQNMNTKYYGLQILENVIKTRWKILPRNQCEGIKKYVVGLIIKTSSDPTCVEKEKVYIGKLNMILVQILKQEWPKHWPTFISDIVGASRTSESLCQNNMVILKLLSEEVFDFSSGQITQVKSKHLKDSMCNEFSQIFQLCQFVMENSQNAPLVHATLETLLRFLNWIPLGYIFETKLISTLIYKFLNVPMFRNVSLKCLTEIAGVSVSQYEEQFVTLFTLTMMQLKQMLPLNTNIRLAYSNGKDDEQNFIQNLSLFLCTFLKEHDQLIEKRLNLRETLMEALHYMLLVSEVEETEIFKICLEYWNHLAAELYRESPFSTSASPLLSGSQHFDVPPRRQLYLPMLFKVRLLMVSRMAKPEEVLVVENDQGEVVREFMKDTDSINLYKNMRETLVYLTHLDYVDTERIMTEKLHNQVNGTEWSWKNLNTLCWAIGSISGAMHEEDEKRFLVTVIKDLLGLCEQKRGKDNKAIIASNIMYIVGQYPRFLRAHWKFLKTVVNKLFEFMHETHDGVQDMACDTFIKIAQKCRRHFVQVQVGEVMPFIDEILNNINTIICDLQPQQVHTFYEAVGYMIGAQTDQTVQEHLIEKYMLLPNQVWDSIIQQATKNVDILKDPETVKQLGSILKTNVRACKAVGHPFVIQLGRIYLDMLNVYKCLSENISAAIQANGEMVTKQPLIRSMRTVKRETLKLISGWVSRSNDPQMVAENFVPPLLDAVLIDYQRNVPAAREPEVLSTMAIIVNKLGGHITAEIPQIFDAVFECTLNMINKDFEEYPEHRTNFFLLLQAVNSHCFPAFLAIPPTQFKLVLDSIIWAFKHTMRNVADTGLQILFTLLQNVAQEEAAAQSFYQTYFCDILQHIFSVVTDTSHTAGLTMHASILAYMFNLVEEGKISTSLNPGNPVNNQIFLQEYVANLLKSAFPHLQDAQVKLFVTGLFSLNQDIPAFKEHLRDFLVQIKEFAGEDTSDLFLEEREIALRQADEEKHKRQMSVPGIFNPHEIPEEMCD
Sequence of IDH1 C269 (O75874) (O75874 whole entry): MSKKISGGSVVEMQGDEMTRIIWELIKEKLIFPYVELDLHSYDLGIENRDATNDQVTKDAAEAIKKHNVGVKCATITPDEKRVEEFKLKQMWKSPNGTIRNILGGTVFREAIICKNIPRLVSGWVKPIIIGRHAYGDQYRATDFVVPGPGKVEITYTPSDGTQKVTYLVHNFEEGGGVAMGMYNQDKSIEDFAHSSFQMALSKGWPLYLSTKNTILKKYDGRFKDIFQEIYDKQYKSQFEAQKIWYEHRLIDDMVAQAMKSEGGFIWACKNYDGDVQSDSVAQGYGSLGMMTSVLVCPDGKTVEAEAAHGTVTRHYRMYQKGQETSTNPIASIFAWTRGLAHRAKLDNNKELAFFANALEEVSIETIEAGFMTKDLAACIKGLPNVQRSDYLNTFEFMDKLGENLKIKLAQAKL
Sequence of GSTP1 C48 (P09211) (P09211 whole entry): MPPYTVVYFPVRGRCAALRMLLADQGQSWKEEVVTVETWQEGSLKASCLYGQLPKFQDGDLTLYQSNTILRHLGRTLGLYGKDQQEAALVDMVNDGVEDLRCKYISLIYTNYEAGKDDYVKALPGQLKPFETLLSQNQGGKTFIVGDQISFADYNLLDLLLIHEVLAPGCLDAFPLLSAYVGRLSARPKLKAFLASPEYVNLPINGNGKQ
Sequence of STAT3 C259 (P40763) (P40763 whole entry): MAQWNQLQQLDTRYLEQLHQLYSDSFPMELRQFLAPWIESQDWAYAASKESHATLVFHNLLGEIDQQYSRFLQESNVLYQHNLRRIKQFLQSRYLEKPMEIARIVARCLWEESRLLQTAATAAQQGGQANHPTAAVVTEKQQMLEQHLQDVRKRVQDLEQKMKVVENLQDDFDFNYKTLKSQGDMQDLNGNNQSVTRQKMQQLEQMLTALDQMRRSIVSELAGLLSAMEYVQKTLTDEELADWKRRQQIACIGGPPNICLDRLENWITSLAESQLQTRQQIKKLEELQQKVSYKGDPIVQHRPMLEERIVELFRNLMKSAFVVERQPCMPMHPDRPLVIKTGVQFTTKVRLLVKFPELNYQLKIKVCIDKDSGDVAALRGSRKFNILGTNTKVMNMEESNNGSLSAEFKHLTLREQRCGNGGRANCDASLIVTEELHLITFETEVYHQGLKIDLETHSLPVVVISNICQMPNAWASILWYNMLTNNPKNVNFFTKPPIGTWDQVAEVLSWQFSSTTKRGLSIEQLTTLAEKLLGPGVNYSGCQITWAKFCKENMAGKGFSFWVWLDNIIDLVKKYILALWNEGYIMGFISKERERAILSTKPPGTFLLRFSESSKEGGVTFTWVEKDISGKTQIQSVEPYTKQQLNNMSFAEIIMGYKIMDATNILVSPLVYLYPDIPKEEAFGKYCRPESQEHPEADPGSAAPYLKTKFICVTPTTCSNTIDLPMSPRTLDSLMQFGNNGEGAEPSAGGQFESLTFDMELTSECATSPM

COc1ccccc1OCCNC(=O)CCl [compound 28]
isoTOP-ABPP ratio (reactivity profile), P09211_C48 (GSTP1 C48 (P09211); 500 μm in-vitro ramos): 1.5 | isoTOP-ABPP ratio (reactivity profile), P09211_C48 (GSTP1 C48 (P09211); 500 μm in-vitro ramos_231): 1.3 | isoTOP-ABPP ratio (reactivity profile), Q15084_C190 (PDIA6 C190 (Q15084); 500 μm in-vitro ramos): 1.6 | isoTOP-ABPP ratio (reactivity profile), Q15084_C190 (PDIA6 C190 (Q15084); 500 μm in-vitro ramos_231): 1.1 | isoTOP-ABPP ratio (reactivity profile), O75874_C269 (IDH1 C269 (O75874); 500 μm in-vitro ramos_231): 1.1 | isoTOP-ABPP ratio (reactivity profile), P16455_C150 (MGMT C150 (P16455); 500 μm in-vitro ramos): 1.7 | isoTOP-ABPP ratio (reactivity profile), P40763_C259 (STAT3 C259 (P40763); 500 μm in-vitro ramos): 1.1 | isoTOP-ABPP ratio (reactivity profile), P40763_C259 (STAT3 C259 (P40763); 500 μm in-vitro ramos_231): 1.0 | isoTOP-ABPP ratio (reactivity profile), O14980_C34 (XPO1 C34 (O14980); 500 μm in-vitro ramos): 0.9 | isoTOP-ABPP ratio (reactivity profile), O14980_C34 (XPO1 C34 (O14980); 500 μm in-vitro ramos_231): 0.8 | isoTOP-ABPP ratio (reactivity profile), Q16822_C306 (PCK2 C306 (Q16822); 500 μm in-vitro ramos_231): 1.1 | isoTOP-ABPP ratio (reactivity profile), Q99873_C109 (PRMT1 C109 (Q99873); 500 μm in-vitro ramos): 1.1 | isoTOP-ABPP ratio (reactivity profile), Q99873_C109 (PRMT1 C109 (Q99873); 500 μm in-vitro ramos_231): 0.8

O=C(CCl)NCCc1c[nH]c2ccccc12 [compound 13]
isoTOP-ABPP ratio, P09211_C48 (GSTP1 C48 (P09211); 231): 1.5 | isoTOP-ABPP ratio, P09211_C48 (GSTP1 C48 (P09211); ramos): 1.2 | isoTOP-ABPP ratio, Q15084_C190 (PDIA6 C190 (Q15084); 231): 1.5 | isoTOP-ABPP ratio, Q15084_C190 (PDIA6 C190 (Q15084); ramos): 1.3 | isoTOP-ABPP ratio, O75874_C269 (IDH1 C269 (O75874); 500 μM, invitro, 231): 2.7 | isoTOP-ABPP ratio, P16455_C150 (MGMT C150 (P16455); 500 μM, invitro, ramos): 4.2 | isoTOP-ABPP ratio, P40763_C259 (STAT3 C259 (P40763); 500 μM, invitro, ramos): 1.2 | isoTOP-ABPP ratio, O14980_C34 (XPO1 C34 (O14980); 231): 0.9 | isoTOP-ABPP ratio, O14980_C34 (XPO1 C34 (O14980); ramos): 0.7 | isoTOP-ABPP ratio, Q16822_C306 (PCK2 C306 (Q16822); 231): 0.9 | isoTOP-ABPP ratio, Q16822_C306 (PCK2 C306 (Q16822); ramos): 1.0 | isoTOP-ABPP ratio, Q99873_C109 (PRMT1 C109 (Q99873); 231): 1.0 | isoTOP-ABPP ratio, Q99873_C109 (PRMT1 C109 (Q99873); ramos): 0.9

Cc1ccc(C=C(C#N)C(=O)NCCN2CCOCC2)cc1 [compound 41]
isoTOP-ABPP reactivity ratio, P09211_C48 (GSTP1 C48 (P09211); in-vitro_ramos): 0.9 | isoTOP-ABPP reactivity ratio, P09211_C48 (GSTP1 C48 (P09211); in-vitro_ramos_231): 1.3 | isoTOP-ABPP reactivity ratio, Q15084_C190 (PDIA6 C190 (Q15084); 500 μm, in-vitro_ramos_231): 1.0 | isoTOP-ABPP reactivity ratio, O75874_C269 (IDH1 C269 (O75874); 500 μm, in-vitro_ramos_231): 0.8 | isoTOP-ABPP reactivity ratio, P16455_C150 (MGMT C150 (P16455); 500 μm, in-vitro_ramos): 0.9 | isoTOP-ABPP reactivity ratio, P40763_C259 (STAT3 C259 (P40763); 500 μm, in-vitro_ramos_231): 0.9 | isoTOP-ABPP reactivity ratio, O14980_C34 (XPO1 C34 (O14980); in-vitro_ramos): 2.0 | isoTOP-ABPP reactivity ratio, O14980_C34 (XPO1 C34 (O14980); in-vitro_ramos_231): 3.1 | isoTOP-ABPP reactivity ratio, Q16822_C306 (PCK2 C306 (Q16822); in-vitro_ramos): 1.0 | isoTOP-ABPP reactivity ratio, Q16822_C306 (PCK2 C306 (Q16822); in-vitro_ramos_231): 1.2 | isoTOP-ABPP reactivity ratio, Q99873_C109 (PRMT1 C109 (Q99873); in-vitro_ramos): 0.9 | isoTOP-ABPP reactivity ratio, Q99873_C109 (PRMT1 C109 (Q99873); in-vitro_ramos_231): 0.9
